The text below walks through data of ChEMBL document CHEMBL1156872, “Synthesis and discovery of 2,3-dihydro-3,8-diphenylbenzo[1,4]oxazines as a novel class of potent cholesteryl ester transfer protein inhibitors” (Bioorg Med Chem Lett, 2010).

The target of data set [1] is T1, Cholesteryl ester transfer protein (Homo sapiens) (UniProt P11597).
T1 sequence (whole entry): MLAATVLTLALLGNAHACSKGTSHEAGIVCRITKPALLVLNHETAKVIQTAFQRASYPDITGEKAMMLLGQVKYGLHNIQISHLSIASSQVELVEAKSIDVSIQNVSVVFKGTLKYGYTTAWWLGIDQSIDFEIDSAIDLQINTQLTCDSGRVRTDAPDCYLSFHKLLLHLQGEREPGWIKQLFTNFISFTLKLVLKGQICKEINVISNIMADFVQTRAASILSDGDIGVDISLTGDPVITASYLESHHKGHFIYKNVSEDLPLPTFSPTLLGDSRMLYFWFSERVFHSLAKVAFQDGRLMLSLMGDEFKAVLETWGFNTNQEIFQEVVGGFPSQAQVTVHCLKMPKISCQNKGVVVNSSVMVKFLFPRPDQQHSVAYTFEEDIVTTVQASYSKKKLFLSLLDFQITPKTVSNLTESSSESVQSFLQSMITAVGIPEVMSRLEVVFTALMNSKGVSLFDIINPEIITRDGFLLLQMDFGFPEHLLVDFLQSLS
In words: Inhibition of human cholesteryl ester transfer protein at 1 uM by scintillation proximity assay.

Data set [2] in a line: Aqueous solubility at pH 2.0. The class given is physicochemical. As to conditions: aqueous medium.
Data set [3] in a line: Aqueous solubility at pH 7.4. In kind it is physicochemical. As to conditions: aqueous medium.
For data set [4], the target named is T2, Cholesteryl ester transfer protein (Homo sapiens, UniProt P11597).
T2 sequence (P11597 whole entry): T1 sequence (whole entry)
In words: Inhibition of human cholesteryl ester transfer protein by scintillation proximity assay. A general note: Scintillation proximity formats need no separation of bound from free tracer.

Data set [5] in a line: Half life in human liver microsomes. In kind it is ADME, Microsome. Background: Liver microsomes are vesicles of endoplasmic reticulum, rich in cytochrome P450 enzymes.

What is called inhibition is the change of the read-out against control, counted positive when it falls. With `CC1(C)OC[C@@H](CN2c3cccc(-c4cccc(OC(F)(F)F)c4)c3OC[C@@H]2c2cccc(OC(F)(F)C(F)F)c2)O1` (mixture of isomers), the inhibition in data set [1] stood at 25%.

Consider `O[C@H](CN1c2cccc(-c3cccc(OC(F)(F)F)c3)c2OC[C@H]1c1cccc(OC(F)(F)C(F)F)c1)C(F)(F)F`, for which the inhibition in data set [1] is 26%.

For `C[C@@H](O)CN1c2cccc(-c3cccc(OC(F)(F)F)c3)c2OC[C@@H]1c1cccc(OC(F)(F)C(F)F)c1`, the inhibition in data set [1] was determined as 28%.

Broadly, the solubility is the concentration that dissolves in the medium under given conditions. Low readings indicate a poorly soluble substance, high ones a readily soluble substance. `O[C@@H](CN1c2cccc(-c3cccc(OC(F)(F)F)c3)c2CC[C@@H]1c1cccc(OC(F)(F)C(F)F)c1)C(F)(F)F`: the solubility in data set [2] and in data set [3] was less than 1 µg/mL each time.

In the case of `CN(C)CCN1c2cccc(-c3cccc(OC(F)(F)F)c3)c2OCC1c1cccc(OC(F)(F)C(F)F)c1` (racemic), in data set [1], the inhibition was found to be 9%.

The term IC50 denotes the point on the concentration scale where inhibition reaches its midpoint. In the case of `OC(CN1c2cccc(-c3cccc(OC(F)(F)F)c3)c2OCC1c1ccc2c(c1)OC(F)(F)O2)C(F)(F)F` (mixture of isomers), the IC50 in data set [4] came to 271 nM. Also, the inhibition in data set [1] is 48%.

In the case of `O=C(CN1c2cccc(-c3cccc(OC(F)(F)F)c3)c2OC[C@@H]1c1cccc(OC(F)(F)C(F)F)c1)C(F)(F)F`, the inhibition in data set [1] was determined as 5%.

Take `CC(C)(O)CN1c2cccc(-c3cccc(OC(F)(F)F)c3)c2OCC1c1cccc(OC(F)(F)C(F)F)c1` (racemic): in data set [1], the inhibition was 29%.

For `OC(CN1c2cccc(-c3cccc(OC(F)(F)F)c3)c2OCC1c1cccc(OC(F)(F)F)c1)C(F)(F)F` (mixture of isomers), the IC50 in data set [4] was found to be 107 nM. The inhibition in data set [1] was 65%.

By half-life is commonly meant the time in which the quantity being followed falls by half. Low readings indicate rapid decline, high ones slow decline. With `O[C@H](CF)CN1c2cccc(-c3cccc(OC(F)(F)F)c3)c2OC[C@@H]1c1cccc(OC(F)(F)C(F)F)c1`, the half-life in data set [5] was found to be 21 min. Further, the inhibition in data set [1] stood at 77%.

In the case of `O[C@@H](CN1c2cccc(-c3cc(F)cc(F)c3)c2OC[C@@H]1c1cccc(OC(F)(F)C(F)F)c1)C(F)(F)F`, the inhibition in data set [1] is 100%.

With `COCCN1c2cccc(-c3cccc(OC(F)(F)F)c3)c2OCC1c1cccc(OC(F)(F)C(F)F)c1` (racemic), the inhibition in data set [1] was 25%.

`OC(CN1c2cccc(-c3cccc(OC(F)(F)F)c3)c2OCC1c1cccc(OC(F)(F)C(F)F)c1)C(F)(F)F` (mixture of isomers): the IC50 in data set [4] came out at 45 nM. Besides, in data set [1], the inhibition is 96%.

Take `OC(CN1c2cccc(-c3cccc(OC(F)(F)F)c3)c2OCC1c1cccc(SC(F)(F)F)c1)C(F)(F)F` (mixture of isomers): the inhibition in data set [1] came to 68%.

As to `OC(CN1c2cccc(-c3cccc(OC(F)(F)F)c3)c2OCC1c1ccccc1OC(F)(F)C(F)F)C(F)(F)F` (mixture of isomers), in data set [1], the inhibition came to 6%.

As to `OC(CN1c2cccc(-c3cccc(OC(F)(F)F)c3)c2OCC1c1cccc(Cl)c1)C(F)(F)F` (mixture of isomers), the inhibition in data set [1] stood at 62%.

For the compound `OC(CN1c2cccc(-c3cccc(OC(F)(F)F)c3)c2OCC1c1cccc(C(F)(F)F)c1)C(F)(F)F` (mixture of isomers), the inhibition in data set [1] worked out at 37%.

As to `OC[C@@H](O)CN1c2cccc(-c3cccc(OC(F)(F)F)c3)c2OC[C@@H]1c1cccc(OC(F)(F)C(F)F)c1`, the inhibition in data set [1] came out at 27%.

On to `CC(=O)CN1c2cccc(-c3cccc(OC(F)(F)F)c3)c2OC[C@@H]1c1cccc(OC(F)(F)C(F)F)c1`, for which the inhibition in data set [1] was found to be 5%.

For the compound `FC(F)C(F)(F)Oc1cccc(C2COc3c(-c4cccc(OC(F)(F)F)c4)cccc3N2CCN2CCOCC2)c1` (racemic), in data set [1], the inhibition was found to be 0%.

As for `O[C@@H](CN1c2cccc(-c3cc(F)cc(F)c3)c2OC[C@@H]1c1cccc(OC(F)(F)F)c1)C(F)(F)F`, the inhibition in data set [1] was 100%.

Turning to `CCOc1cccc(C2COc3c(-c4cccc(OC(F)(F)F)c4)cccc3N2CC(O)C(F)(F)F)c1` (mixture of isomers), the inhibition in data set [1] was determined as 56%.

Regarding `O[C@@H](CN1c2cccc(-c3cc(C(F)(F)F)cc(C(F)(F)F)c3)c2OC[C@@H]1c1cccc(OC(F)(F)C(F)F)c1)C(F)(F)F`, the inhibition in data set [1] worked out at 59%.

For the compound `OC(CN1c2cccc(-c3cccc(OC(F)(F)F)c3)c2OCC1c1ccc(OC(F)(F)C(F)F)cc1)C(F)(F)F` (mixture of isomers), the inhibition in data set [1] turned out to be 33%.

For `CCN1c2cccc(-c3cccc(OC(F)(F)F)c3)c2OCC1c1cccc(OC(F)(F)C(F)F)c1` (racemic), the inhibition in data set [1] amounted to 24%.

On to `OCCN1c2cccc(-c3cccc(OC(F)(F)F)c3)c2OCC1c1cccc(OC(F)(F)C(F)F)c1` (racemic), for which the inhibition in data set [1] was 29%.

With `O[C@@H](CN1c2cccc(-c3cc(F)c(F)c(F)c3)c2OC[C@@H]1c1cccc(OC(F)(F)C(F)F)c1)C(F)(F)F`, the inhibition in data set [1] is 101%.

`CCCN1c2cccc(-c3cccc(OC(F)(F)F)c3)c2OCC1c1cccc(OC(F)(F)C(F)F)c1` (racemic): in data set [1], the inhibition came out at 39%.

On to `OC(CN1c2cccc(-c3cccc(OC(F)(F)F)c3)c2OCC1c1ccc(OC(F)(F)F)cc1)C(F)(F)F` (mixture of isomers), for which the inhibition in data set [1] came to 38%.

Regarding `O[C@@H](CN1c2cccc(-c3cccc(OC(F)(F)F)c3)c2OC[C@@H]1c1cccc(OC(F)(F)F)c1)C(F)(F)F`, the IC50 in data set [4] came out at 133 nM. In data set [1], the inhibition amounted to 69%.

The compound `CC(C)C(O)CN1c2cccc(-c3cccc(OC(F)(F)F)c3)c2OCC1c1cccc(OC(F)(F)C(F)F)c1` (mixture of isomers) showed an IC50 in data set [4] of 129 nM. The inhibition in data set [1] stood at 86%.

Regarding `OCCCN1c2cccc(-c3cccc(OC(F)(F)F)c3)c2OCC1c1cccc(OC(F)(F)C(F)F)c1` (racemic), the inhibition in data set [1] worked out at 10%.

Regarding `NCCN1c2cccc(-c3cccc(OC(F)(F)F)c3)c2OCC1c1cccc(OC(F)(F)C(F)F)c1` (racemic), the inhibition in data set [1] was found to be 2%.

For the compound `COC(=O)N1c2cccc(-c3cccc(OC(F)(F)F)c3)c2OCC1c1cccc(OC(F)(F)C(F)F)c1` (racemic), the inhibition in data set [1] was 16%.

Consider `O[C@@H](CN1c2cccc(-c3cc(F)c(F)c(F)c3)c2OC[C@@H]1c1cccc(OC(F)(F)F)c1)C(F)(F)F`, for which, in data set [1], the inhibition came out at 94%.

As for `COc1cccc(C2COc3c(-c4cccc(OC(F)(F)F)c4)cccc3N2CC(O)C(F)(F)F)c1` (mixture of isomers), the inhibition in data set [1] stood at 29%.

As to `C[C@H](O)CN1c2cccc(-c3cccc(OC(F)(F)F)c3)c2OC[C@@H]1c1cccc(OC(F)(F)C(F)F)c1`, in data set [4], half-maximal inhibition (IC50) required 88 nM. The inhibition in data set [1] was 50%.

Regarding `O[C@@H](CN1c2cccc(-c3cccc(OC(F)(F)F)c3)c2OC[C@H]1c1cccc(OC(F)(F)C(F)F)c1)C(F)(F)F`, in data set [1], the inhibition worked out at 14%.

Turning to `OC(CN1c2cccc(-c3cccc(OC(F)(F)F)c3)c2OCC1c1ccccc1)C(F)(F)F` (mixture of isomers), the inhibition in data set [1] was determined as 43%.

Consider `O[C@H](CN1c2cccc(-c3cccc(OC(F)(F)F)c3)c2OC[C@@H]1c1cccc(OC(F)(F)C(F)F)c1)C(F)(F)F`, for which, in data set [1], the inhibition was 23%.

Take `O[C@@H](CF)CN1c2cccc(-c3cccc(OC(F)(F)F)c3)c2OC[C@@H]1c1cccc(OC(F)(F)C(F)F)c1`: the inhibition in data set [1] was 55%.

`OC(CN1c2cccc(-c3cccc(F)c3)c2OCC1c1cccc(OC(F)(F)C(F)F)c1)C(F)(F)F` (mixture of isomers): in data set [1], the inhibition was found to be 79%.
